Values of other authors as cited in patent US20200155636A1, “Medicament and Beverage for Improving Joint and Bone Diseases” (priority 2017, published 2020).

Details: oral application

absorption (small intestine): absorbed in the small intestine
Substance: hyaluronic acid
stability against gastric acid: survives the gastric acid
